Experimental data: patent publication US20250296971A1, “GASTRIC INHIBITORY PEPTIDE RECEPTOR LIGANDS” (priority 2021, published 2025)
*1 amine or outer side, *2 acyl side, *3 side chain or, on linkers, in order; H or OH if unused. Where a SMILES comes first, the peptide text is derived from it. Bridges are numbered along the chain shown (N, C = ends). [ ]: non-standard residue; d: D form. The star is where a group is joined. X3 = O=C(O)CN1CCN(CC(=O)O)CCN(CC(=O)NCCCOCCOCCOCCCN*)CCN(CC(=O)O)CC1; DOTA = O=C(O)CN1CCN(CC(=O)O)CCN(CC(=O)*)CCN(CC(=O)O)CC1; Pro(cis-4-NHAc) = CC(=O)N[C@@H]1CN[C@H](C(=O)O)C1; Trp(5-Cl) = N[C@@H](Cc1c[nH]c2ccc(Cl)cc12)C(=O)O; Pyridine(2,6-diCH2) = c1cc(C[*:1])nc(C[*:2])c1; Pro(4R-NH2) = N[C@H]1CN[C@H](C(=O)O)C1; X6 = c1cc(CSCCN[*:2])nc(C[*:1])c1; X7 = c1cc(CSCCN[*:2])cc(C[*:1])c1; Hyp = O=C(O)[C@@H]1C[C@@H](O)CN1; X1 = O=C(CN1CCC(N[*:1])CC1)[*:2]; Suc = O=C(CCC(=O)[*:2])[*:1]; Api = NC1(C(=O)O)CCNCC1; Thp = NC1(C(=O)O)CCOCC1; Aib = CC(C)(N)C(=O)O

Legend:
[1] = biological target: T1, GIPR (CHO-K1-hGIPR cells) (Homo sapiens, UniProt P48546); assay: FACS binding assay; conditions: competition with 20 nM GIP-057, 4° C., 1 hour, read-out: pIC50 Category (converted)
T1 construct: host or cells: CHO-K1
T1 sequence (P48546 22-466): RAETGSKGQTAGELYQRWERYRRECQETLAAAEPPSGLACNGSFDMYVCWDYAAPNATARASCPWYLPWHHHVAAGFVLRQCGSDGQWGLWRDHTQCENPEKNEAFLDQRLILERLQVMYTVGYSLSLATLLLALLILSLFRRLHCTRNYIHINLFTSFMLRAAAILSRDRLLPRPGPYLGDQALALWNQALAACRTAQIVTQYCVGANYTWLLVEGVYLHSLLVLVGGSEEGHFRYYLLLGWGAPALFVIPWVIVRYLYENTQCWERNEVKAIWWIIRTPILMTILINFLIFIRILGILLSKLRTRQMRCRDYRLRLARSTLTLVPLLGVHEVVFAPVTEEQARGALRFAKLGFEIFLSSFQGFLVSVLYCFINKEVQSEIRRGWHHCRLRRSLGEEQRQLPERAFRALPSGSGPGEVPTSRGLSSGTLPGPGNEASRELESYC
Summary of the method: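 Read-out: flow cytometric median fluorescence intensity, APC/Cy5 channel, plotted vs peptide conc.; 4PL fit → EC50/pEC50 or IC50/pIC50. Cells: CHO-K1-hGIPR, Accutase-detached, 500.000/mL in PBS + 1% FCS. Detection: APC-streptavidin 1 μg/mL, 30 min, on ice.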

[2] = biological target: T2, human GIP receptor (bioGIPR) (Homo sapiens, UniProt P48546); assay: Surface plasmon resonance (SPR) based binding assay; conditions: Single Cycle Kinetic mode, 25° C.; for t1/2 Category: SPR dissociation half-life; for Kd: SPR, 1:1 Langmuir binding model, read-out: pKD Category (converted)
T2 construct: Biotinylate extracellular of the human GIP receptor (bioGIPR, Proteros biostructures GmbH, lot #02/2b); purchased Proteros biostructures GmbH lot #02/2b
T2 sequence (P48546 22-138 limits assumed): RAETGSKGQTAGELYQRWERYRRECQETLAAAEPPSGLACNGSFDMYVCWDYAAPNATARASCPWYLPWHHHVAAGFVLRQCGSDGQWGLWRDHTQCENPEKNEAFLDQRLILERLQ
Summary of the method: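 Binding was measured at 25 °C by single-cycle kinetics against a reference flow cell, with blank-run and drift correction, after capturing biotinylated GIPR extracellular domain to ~3500 RU. Running buffer: HBST, 0.1% DMSO. A 1:1 Langmuir model gave kinetic rates, KD, t1/2 and pKD.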

| IC50 [1] [nM] | t1/2 Category [2] | Kd [2] [nM] | Compound |
| --- | --- | --- | --- |
| < 10 | A (t1/2 values>15 min) | < 1 | CC[C@H](C)[C@@H]1NC(=O)[C@H](CC(C)C)NC(=O)C2(CCOCC2)NC(=O)[C@@H](NC(=O)[C@@H](CC(C)C)NC(=O)[C@H](CCC(=O)O)NC(=O)[C@@H]2C[C@@H](O)CN2C(=O)[C@H](Cc2c[nH]c3ccc(Cl)cc23)NC(=O)[C@H](Cc2c[nH]c3ccccc23)NC(=O)CCC(=O)O)CSCc2cccc(n2)CSC[C@@H](C(=O)NC2CCN(CC(=O)N[C@@H](CCCCNC(=O)CN3CCN(CC(=O)O)CCN(CC(=O)O)CCN(CC(=O)O)CC3)C(N)=O)CC2)NC1=O [GIP-109, HO-Succinyl-Trp-5Clw-Hyp-Glu-leu-[Cys(2Lut)-Thp-Leu-Ile-Cys]-APAc-Lys(DOTA)-NH2] (Suc-W[Trp(5-Cl)][Hyp]E[dL]C[Thp]LIC[X1]K(DOTA)-NH2; linker 6-10 via Pyridine(2,6-diCH2)) |
| < 10 | A (t1/2 values>15 min) | < 1 | CC[C@H](C)[C@@H]1NC(=O)[C@H](CC(C)C)NC(=O)C2(CCN(C(=O)CN3CCN(CC(=O)O)CCN(CC(=O)O)CCN(CC(=O)O)CC3)CC2)NC(=O)[C@@H](NC(=O)[C@@H](CC(C)C)NC(=O)[C@H](CCC(=O)O)NC(=O)[C@@H]2C[C@@H](O)CN2C(=O)[C@H](Cc2c[nH]c3ccc(Cl)cc23)NC(=O)[C@H](Cc2c[nH]c3ccccc23)NC(=O)CCC(=O)O)CSCc2cccc(n2)CSCCNC1=O [GIP-110, HO-Succinyl-Trp-5Clw-Hyp-Glu-leu-[Cys(2Lut)-Apc(DOTA)-Leu-Ile-AET]] (Suc-W[Trp(5-Cl)][Hyp]E[dL]C[Api](DOTA)LI; linker 6-C via X6) |
| < 10 | A (t1/2 values>15 min) | 1 to 7.94 | CC[C@H](C)[C@@H]1NC(=O)[C@H](CC(C)C)NC(=O)C(C)(C)NC(=O)[C@@H](NC(=O)[C@@H](CC(C)C)NC(=O)[C@H](CCC(=O)O)NC(=O)[C@@H]2C[C@H](NC(C)=O)CN2C(=O)[C@H](Cc2c[nH]c3ccc(Cl)cc23)NC(=O)[C@H](Cc2c[nH]c3ccccc23)NC(=O)[C@H](CC(=O)O)NC(=O)CCC(=O)NCCCOCCOCCOCCCNC(=O)CN2CCN(CC(=O)O)CCN(CC(=O)O)CCN(CC(=O)O)CC2)CSCc2cccc(c2)CSCCNC1=O [GIP-111, DOTA-Ttds-Asp-Trp-5Clw-4Ap(Ac)-Glu-leu-[Cys(3MeBn)-Aib-Leu-Ile-AET]] ({X3-Suc}-DW[Trp(5-Cl)][Pro(cis-4-NHAc)]E[dL]C[Aib]LI; linker 7-C via X7) |
| < 10 | A (t1/2 values>15 min) | < 1 | CC[C@H](C)[C@@H]1NC(=O)[C@H](CC(C)C)NC(=O)C2(CCNCC2)NC(=O)[C@@H](NC(=O)[C@@H](CC(C)C)NC(=O)[C@H](CCC(=O)O)NC(=O)[C@@H]2C[C@@H](N)CN2C(=O)[C@H](Cc2c[nH]c3ccc(Cl)cc23)NC(=O)[C@H](Cc2c[nH]c3ccccc23)NC(=O)[C@H](CC(=O)O)NC(=O)CCC(=O)NCCCOCCOCCOCCCNC(=O)CN2CCN(CC(=O)O)CCN(CC(=O)O)CCN(CC(=O)O)CC2)CSCc2cccc(c2)CSCCNC1=O [GIP-112, DOTA-Ttds-Asp-Trp-5Clw-Tap-Glu-leu-[Cys(2Lut)-Apc-Leu-Ile-AET]] ({X3-Suc}-DW[Trp(5-Cl)][Pro(4R-NH2)]E[dL]C[Api]LI; linker 7-C via X7) |
| < 10 | A (t1/2 values>15 min) | < 1 | CC[C@H](C)[C@@H]1NC(=O)[C@H](CC(C)C)NC(=O)C2(CCNCC2)NC(=O)[C@@H](NC(=O)[C@@H](CC(C)C)NC(=O)[C@H](CCC(=O)O)NC(=O)[C@@H]2C[C@@H](N)CN2C(=O)[C@H](Cc2c[nH]c3ccc(Cl)cc23)NC(=O)[C@H](Cc2c[nH]c3ccccc23)NC(=O)[C@H](CC(=O)O)NC(=O)CCC(=O)NCCCOCCOCCOCCCNC(=O)CN2CCN(CC(=O)O)CCN(CC(=O)O)CCN(CC(=O)O)CC2)CNCc2cccc(n2)CSCCNC1=O [GIP-113, DOTA-Ttds-Asp-Trp-5Clw-Tap-Glu-leu-[Dap(2Lut)-Apc-Leu-Ile-AET]] |
